We go through 4 molecules from PMC10258805, “Nonpeptidic Oxazole-Based Prolyl Oligopeptidase Ligands with Disease-Modifying Effects on α-Synuclein Mouse Models of Parkinson’s Disease” (Journal of Medicinal Chemistry, 2023).

The test system of one data set is LC3BII in HEK-293 cells. In words: Autophagy marker LC3BII assay (Western blot). The following applies: HEK-293, 10 μM. Format: cell-based, human. For orientation: In western blotting, separated proteins are transferred to a membrane and probed.
Data set [1] deals with oligomeric αSyn in AAV-αSyn-injected mice. In words: Oligomer-specific αSyn immunoreactivity (OD) in AAV-αSyn PD mouse model. The following applies: 10 mg/kg/day minipump, 4 weeks.
The test system of data set [2] is AAV2-CBA-αSyn-injected mice. The data set is described as follows: Cylinder test in AAV-αSyn PD mouse model. The following applies: 10 mg/kg/day minipump, after 2 weeks of treatment (6-week time point), vs vehicle-treated AAV-αSyn mice.
Data set [3] relates to pPP2Ac and PP2Ac in mouse brain. The data set is described as follows: PP2A markers in mouse brain (Western blot). The following applies: 10 mg/kg i.p., 45 min after injection. Format: in vivo.
Data set [4] has as its system pPP2Ac and PP2Ac in HEK-293 cells. The data set is described as follows: PP2A marker assay (Western blot). Type of data set: cell-based, human. To be noted: HEK-293, 10 μM, 4 h.
The subject of data set [5] is αSyn dimerization in Neuro2A (N2A) cells. The data set is described as follows: αSyn-dimerization assay (split Gaussia luciferase PCA). The following applies: Mus musculus, N2a.
The test system of data set [6] is HEK-293 cells stably expressing GFP-LC3B. The data set is described as follows: Autophagic flux (GFP-LC3B reporter cells). The following applies: Homo sapiens, HEK293, 24 h.
Data set [7] has as its target T1, PREP in mouse brain homogenate (Mus musculus, UniProt Q9QUR6).
T1 construct: from tissue; host or cells: mouse brain homogenate
In words: PREP inhibition measured with mouse brain homogenate. Format: biochemical.

For data set [8], the system named is ROS production in SH-SY5Y cells. The data set is described as follows: ROS detection assay under oxidative stress. The following applies: Homo sapiens, 3 h.
A short description of data set [9]: Stability studies (NMR, MS, polarimetry, long-term monitoring). The following applies: NMR samples in solution, 2-4 days at room temperature; UPLC-MS two or more weeks after isolation.

Read-outs that look alike come from different tables or passages of the source.

T1 sequence (Q9QUR6 whole entry): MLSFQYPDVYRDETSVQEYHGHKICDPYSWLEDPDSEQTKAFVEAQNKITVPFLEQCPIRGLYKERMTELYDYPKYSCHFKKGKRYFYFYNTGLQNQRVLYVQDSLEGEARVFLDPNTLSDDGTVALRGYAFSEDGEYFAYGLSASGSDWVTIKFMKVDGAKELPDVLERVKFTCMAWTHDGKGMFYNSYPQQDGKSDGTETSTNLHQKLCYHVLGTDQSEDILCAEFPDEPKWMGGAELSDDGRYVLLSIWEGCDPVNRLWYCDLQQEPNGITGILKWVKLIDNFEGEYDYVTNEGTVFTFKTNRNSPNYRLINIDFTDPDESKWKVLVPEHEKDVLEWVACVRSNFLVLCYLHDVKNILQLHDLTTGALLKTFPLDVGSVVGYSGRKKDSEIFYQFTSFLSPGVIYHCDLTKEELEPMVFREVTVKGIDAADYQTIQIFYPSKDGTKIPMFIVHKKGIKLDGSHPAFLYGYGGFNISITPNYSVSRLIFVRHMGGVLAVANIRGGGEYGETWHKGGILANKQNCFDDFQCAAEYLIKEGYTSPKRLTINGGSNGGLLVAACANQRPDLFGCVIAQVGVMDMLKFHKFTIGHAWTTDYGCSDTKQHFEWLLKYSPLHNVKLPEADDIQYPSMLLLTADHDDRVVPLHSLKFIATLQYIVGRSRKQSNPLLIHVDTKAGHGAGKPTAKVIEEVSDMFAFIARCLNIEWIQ

With `N#C[C@@H]1CCCN1C(=O)[C@@H]1CCCN1C(=O)CCCc1ccccc1` [KYP-2047, reference compound], the “LC3BII levels (in words)” value with LC3BII in HEK-293 cells (4 h) is given as “significant increase in LC3BII levels”. In the data set on LC3BII in HEK-293 cells (24 h), the “LC3BII levels (in words)” value is reported as “significantly elevated LC3BII levels”. Further, the “OD of oligomeric αSyn in the SNpc (in words)” value in [1] (vs vehicle-treated group) is reported as “did not significantly reduce”. Moreover, in [1] (vs vehicle-treated mice), the “OD of oligomer-specific αSyn in the STR (in words)” value was “decreased the OD of oligomer-specific αSyn”. Also, the “use of the ipsilateral forepaw in the cylinder test (in words)” value in data set [2] is “significantly decreased their use of the ipsilateral forepaw”. Further, in [3], the “inactive pPP2Ac levels in mouse brain (in words)” value was “decreased inactive pPP2Ac levels, but this was not significant” and the “levels of PP2Ac in mouse brain (in words)” value was “significantly increased the levels of PP2Ac”. Further, the “total PP2Ac levels (in words)” value in data set [4] is recorded as “elevated total PP2Ac levels”.

By IC50 is commonly meant the concentration that inhibits the measured activity by half. `Cc1nc(C(=O)CCc2ccccc2)oc1N1CCCC1` [compound 25, 1-(4-Methyl-5-(pyrrolidin-1-yl)oxazol-2-yl)-3-phenylpropan-1-one]: the activity at 10 µM amounted to 110% in [5] (read-out: aSyn dimerization at 10 uM (%)); 110 ± 6% in [5] (read-out: αSyn dimer. at 10 μM (%)); 95% in data set [6] (read-out: Autophagy at 10 uM (%)); 95 ± 10% in data set [6] (read-out: autophagy at 10 μM (%)); 105% in [8] (read-out: ROS at 10 uM (%)); 105 ± 8% in data set [8] (read-out: ROS at 10 μM (%)). The “inhibitory activity (in words)” value in data set [7] (Table 2: mouse brain homogenate) is “very weak inhibitor”. Besides, the IC50 in data set [7] (measured with mouse brain homogenate, read-out: IC50 (nM) (95% CI)) is 90000 nM.

With `Cc1nc(CCCc2ccccn2)oc1N1CCCC1C#N` (stereo not drawn) [compound 69], the “long-term stability (in words)” value in [9] is given as “lowered the stability”.

Consider `Cc1nc(CCc2cccnc2)oc1N1CCCC1C#N` (stereo not drawn) [compound 70], for which, in data set [9], the “long-term stability (in words)” value is “lowered the stability”.
